The text below walks through data of paper PMC6496959 (Journal of medicinal chemistry, 2018).

The subject of the assay is A/PR/8/34 (NA-H274Y) (H1N1). The format is cell-based, influenza A virus. Particulars: read-out: Antiviral activity (EC50).

Each structure is given as a SMILES string.

A word on the EC50: it is the concentration that produces a half-maximal response. In the case of `NC12CC3CC(CC(C3)C1)C2` [Amantadine, amantadine, reference compound], the EC50 is more than 100 µM.

On to `CCOC(=O)C1=C[C@@H](OC(CC)CC)[C@H](NC(C)=O)[C@@H](N)C1` [Oseltamivir, oseltamivir], for which the EC50 is more than 10 µM.
